Measurements as given in US9469650B2, “Melampomagnolide B derivatives” (BOARD OF TRUSTEES OF THE UNIVERSITY OF ARKANSAS, priority 2013, dated 2016).

How the values were obtained:
LOX IMVI = assay: panel of 60 human tumor cell lines, growth inhibition (Melanoma)
M14 = assay: as above
SF-268 = assay: panel of 60 human tumor cell lines, growth inhibition (CNS Cancer)
SF-295 = assay: as above
U251 = assay: as above; settings: for Percent Growth: U251
COLO 205 = assay: panel of 60 human tumor cell lines, growth inhibition (Colon Cancer)
SW-620 = assay: as above; settings: for Percent Growth: SW-620
786-0 = assay: panel of 60 human tumor cell lines, growth inhibition (Renal Cancer)
A498 = assay: as above
CAKI-1 = assay: as above
HS 578T = assay: panel of 60 human tumor cell lines, growth inhibition (Breast Cancer); settings: for Percent Growth: HS 578T
OVCAR-5 = assay: panel of 60 human tumor cell lines, growth inhibition (Ovarian Cancer)
NCI/ADR-RES = assay: as above
PC-3 = assay: panel of 60 human tumor cell lines, growth inhibition (Prostate Cancer)
DU-145 = assay: as above
HOP-62 = assay: panel of 60 human tumor cell lines, growth inhibition (Non-Small Cell Lung Cancer)
NCI-H226 = assay: as above
NCI-H522 = assay: as above

C=C1C(=O)O[C@H]2[C@H]1CC/C(COC(=O)CCC(=O)NCc1ccc(Cl)nc1)=C\CC[C@@]1(C)O[C@@H]21 [JVM 96]
GI50 (LOX IMVI; Homo sapiens): 4.74 µM
CC50 (LOX IMVI; Homo sapiens, read-out: LC50): 47 µM
IC (TGI) (LOX IMVI; Homo sapiens, read-out: TGI): 16.7 µM
Percent Growth (LOX IMVI; Log10 Concentration −4.0): −86%
Percent Growth (LOX IMVI; Log10 Concentration −5.0): 25%
Percent Growth (LOX IMVI; Log10 Concentration −6.0): 103%
Percent Growth (LOX IMVI; Log10 Concentration −7.0): 98%
Percent Growth (LOX IMVI; Log10 Concentration −8.0): 98%
GI50 (M14; Homo sapiens, M14): 5.75 µM
CC50 (M14; Homo sapiens, M14, read-out: LC50): 50.3 µM
IC (TGI) (M14; Homo sapiens, M14, read-out: TGI): 19.5 µM
Percent Growth (M14; M14, Log10 Concentration −4.0): −86%
Percent Growth (M14; M14, Log10 Concentration −5.0): 35%
Percent Growth (M14; M14, Log10 Concentration −6.0): 96%
Percent Growth (M14; M14, Log10 Concentration −7.0): 91%
Percent Growth (M14; M14, Log10 Concentration −8.0): 98%
GI50 (SF-268; Homo sapiens, SF-268): 10.5 µM
CC50 (SF-268; Homo sapiens, SF-268, read-out: LC50): 67.6 µM
IC (TGI) (SF-268; Homo sapiens, SF-268, read-out: TGI): 26.7 µM
Percent Growth (SF-268; SF-268, Log10 Concentration −4.0): −71%
Percent Growth (SF-268; SF-268, Log10 Concentration −5.0): 52%
Percent Growth (SF-268; SF-268, Log10 Concentration −6.0): 97%
Percent Growth (SF-268; SF-268, Log10 Concentration −7.0): 98%
Percent Growth (SF-268; SF-268, Log10 Concentration −8.0): 97%
GI50 (SF-295; Homo sapiens, SF-295): 16.6 µM
CC50 (SF-295; Homo sapiens, SF-295, read-out: LC50): 84.2 µM
IC (TGI) (SF-295; Homo sapiens, SF-295, read-out: TGI): 37.4 µM
Percent Growth (SF-295; SF-295, Log10 Concentration −4.0): −61%
Percent Growth (SF-295; SF-295, Log10 Concentration −5.0): 81%
Percent Growth (SF-295; SF-295, Log10 Concentration −6.0): 96%
Percent Growth (SF-295; SF-295, Log10 Concentration −7.0): 91%
Percent Growth (SF-295; SF-295, Log10 Concentration −8.0): 93%
GI50 (U251; Homo sapiens, U-251): 16.7 µM
CC50 (U251; Homo sapiens, U-251, read-out: LC50): 64.5 µM
IC (TGI) (U251; Homo sapiens, U-251, read-out: TGI): 32.8 µM
Percent Growth (U251; Log10 Concentration −4.0): −82%
Percent Growth (U251; Log10 Concentration −5.0): 88%
Percent Growth (U251; Log10 Concentration −6.0): 99%
Percent Growth (U251; Log10 Concentration −7.0): 93%
Percent Growth (U251; Log10 Concentration −8.0): 92%
Percent Growth (COLO 205; COLO 205, Log10 Concentration −4.0): −90%
Percent Growth (COLO 205; COLO 205, Log10 Concentration −5.0): 1%
Percent Growth (COLO 205; COLO 205, Log10 Concentration −6.0): 103%
Percent Growth (COLO 205; COLO 205, Log10 Concentration −7.0): 105%
Percent Growth (COLO 205; COLO 205, Log10 Concentration −8.0): 109%
GI50 (COLO 205; Homo sapiens, COLO 205): 3.3 µM
CC50 (COLO 205; Homo sapiens, COLO 205, read-out: LC50): 36.6 µM
IC (TGI) (COLO 205; Homo sapiens, COLO 205, read-out: TGI): 10.3 µM
GI50 (SW-620; Homo sapiens, SW-620, SW-620): 4.35 µM
CC50 (SW-620; Homo sapiens, SW-620, read-out: LC50): 64.9 µM
IC (TGI) (SW-620; Homo sapiens, SW-620, read-out: TGI): 17.8 µM
Percent Growth (SW-620; Log10 Concentration −4.0): −67%
Percent Growth (SW-620; Log10 Concentration −5.0): 22%
Percent Growth (SW-620; Log10 Concentration −6.0): 99%
Percent Growth (SW-620; Log10 Concentration −7.0): 99%
Percent Growth (SW-620; Log10 Concentration −8.0): 99%
Percent Growth (786-0; 786-0, Log10 Concentration −4.0): −91%
Percent Growth (786-0; 786-0, Log10 Concentration −5.0): 26%
Percent Growth (786-0; 786-0, Log10 Concentration −6.0): 94%
Percent Growth (786-0; 786-0, Log10 Concentration −7.0): 92%
Percent Growth (786-0; 786-0, Log10 Concentration −8.0): 94%
GI50 (786-0; Homo sapiens, 786-0): 4.43 µM
CC50 (786-0; Homo sapiens, 786-0, read-out: LC50): 44.4 µM
IC (TGI) (786-0; Homo sapiens, 786-0, read-out: TGI): 16.6 µM
Percent Growth (A498; A498, Log10 Concentration −4.0): −95%
Percent Growth (A498; A498, Log10 Concentration −5.0): 74%
Percent Growth (A498; A498, Log10 Concentration −6.0): 95%
Percent Growth (A498; A498, Log10 Concentration −7.0): 107%
Percent Growth (A498; A498, Log10 Concentration −8.0): 96%
GI50 (A498; Homo sapiens, A498): 13.9 µM
CC50 (A498; Homo sapiens, A498, read-out: LC50): 54.2 µM
IC (TGI) (A498; Homo sapiens, A498, read-out: TGI): 27.5 µM
Percent Growth (CAKI-1; CAKI-1, Log10 Concentration −4.0): −93%
Percent Growth (CAKI-1; CAKI-1, Log10 Concentration −5.0): 41%
Percent Growth (CAKI-1; CAKI-1, Log10 Concentration −6.0): 87%
Percent Growth (CAKI-1; CAKI-1, Log10 Concentration −7.0): 85%
Percent Growth (CAKI-1; CAKI-1, Log10 Concentration −8.0): 93%
GI50 (CAKI-1; Homo sapiens, CAKI-1): 6.37 µM
CC50 (CAKI-1; Homo sapiens, CAKI-1, read-out: LC50): 47.9 µM
IC (TGI) (CAKI-1; Homo sapiens, CAKI-1, read-out: TGI): 20.3 µM
Percent Growth (HS 578T; Log10 Concentration −4.0): −5%
Percent Growth (HS 578T; Log10 Concentration −5.0): 61%
Percent Growth (HS 578T; Log10 Concentration −6.0): 94%
Percent Growth (HS 578T; Log10 Concentration −7.0): 101%
Percent Growth (HS 578T; Log10 Concentration −8.0): 95%
GI50 (HS 578T; Homo sapiens, Hs-578T): 14.7 µM
CC50 (HS 578T; Homo sapiens, Hs-578T, read-out: LC50): > 100 µM
IC (TGI) (HS 578T; Homo sapiens, Hs-578T, read-out: TGI): 63.7 µM
GI50 (OVCAR-5; Homo sapiens, OVCAR-5): 12.1 µM
CC50 (OVCAR-5; Homo sapiens, OVCAR-5, read-out: LC50): 60.5 µM
IC (TGI) (OVCAR-5; Homo sapiens, OVCAR-5, read-out: TGI): 27.1 µM
Percent Growth (OVCAR-5; OVCAR-5, Log10 Concentration −4.0): −81%
Percent Growth (OVCAR-5; OVCAR-5, Log10 Concentration −5.0): 62%
Percent Growth (OVCAR-5; OVCAR-5, Log10 Concentration −6.0): 89%
Percent Growth (OVCAR-5; OVCAR-5, Log10 Concentration −7.0): 84%
Percent Growth (OVCAR-5; OVCAR-5, Log10 Concentration −8.0): 93%
GI50 (NCI/ADR-RES; Homo sapiens): 31.1 µM
CC50 (NCI/ADR-RES; Homo sapiens, read-out: LC50): > 100 µM
IC (TGI) (NCI/ADR-RES; Homo sapiens, read-out: TGI): > 100 µM
Percent Growth (NCI/ADR-RES; Log10 Concentration −4.0): 6%
Percent Growth (NCI/ADR-RES; Log10 Concentration −5.0): 93%
Percent Growth (NCI/ADR-RES; Log10 Concentration −6.0): 107%
Percent Growth (NCI/ADR-RES; Log10 Concentration −7.0): 101%
Percent Growth (NCI/ADR-RES; Log10 Concentration −8.0): 101%
GI50 (PC-3; Homo sapiens, PC-3): 15.6 µM
CC50 (PC-3; Homo sapiens, PC-3, read-out: LC50): 75.7 µM
IC (TGI) (PC-3; Homo sapiens, PC-3, read-out: TGI): 34.3 µM
Percent Growth (PC-3; PC-3, Log10 Concentration −4.0): −68%
Percent Growth (PC-3; PC-3, Log10 Concentration −5.0): 78%
Percent Growth (PC-3; PC-3, Log10 Concentration −6.0): 93%
Percent Growth (PC-3; PC-3, Log10 Concentration −7.0): 92%
Percent Growth (PC-3; PC-3, Log10 Concentration −8.0): 90%
Percent Growth (DU-145; DU-145, Log10 Concentration −4.0): −97%
Percent Growth (DU-145; DU-145, Log10 Concentration −5.0): 16%
Percent Growth (DU-145; DU-145, Log10 Concentration −6.0): 98%
Percent Growth (DU-145; DU-145, Log10 Concentration −7.0): 106%
Percent Growth (DU-145; DU-145, Log10 Concentration −8.0): 99%
GI50 (DU-145; Homo sapiens, DU-145): 3.84 µM
CC50 (DU-145; Homo sapiens, DU-145, read-out: LC50): 38.4 µM
IC (TGI) (DU-145; Homo sapiens, DU-145, read-out: TGI): 13.9 µM
Percent Growth (HOP-62; HOP-62, Log10 Concentration −4.0): −53%
Percent Growth (HOP-62; HOP-62, Log10 Concentration −5.0): 95%
Percent Growth (HOP-62; HOP-62, Log10 Concentration −6.0): 98%
Percent Growth (HOP-62; HOP-62, Log10 Concentration −7.0): 93%
Percent Growth (HOP-62; HOP-62, Log10 Concentration −8.0): 95%
GI50 (HOP-62; Homo sapiens, HOP-62): 20.1 µM
CC50 (HOP-62; Homo sapiens, HOP-62, read-out: LC50): 95.2 µM
IC (TGI) (HOP-62; Homo sapiens, HOP-62, read-out: TGI): 43.7 µM
GI50 (NCI-H226; Homo sapiens, NCI-H226): 12.7 µM
IC (TGI) (NCI-H226; Homo sapiens, NCI-H226, read-out: TGI): 32 µM
Percent Growth (NCI-H226; NCI-H226, Log10 Concentration −4.0): −61%
Percent Growth (NCI-H226; NCI-H226, Log10 Concentration −5.0): 63%
Percent Growth (NCI-H226; NCI-H226, Log10 Concentration −6.0): 94%
Percent Growth (NCI-H226; NCI-H226, Log10 Concentration −7.0): 97%
Percent Growth (NCI-H226; NCI-H226, Log10 Concentration −8.0): 96%
GI50 (NCI-H522; Homo sapiens, NCI-H522): 1.6 µM
CC50 (NCI-H522; Homo sapiens, NCI-H522, read-out: LC50): 7.82 µM
IC (TGI) (NCI-H522; Homo sapiens, NCI-H522, read-out: TGI): 3.54 µM
Percent Growth (NCI-H522; NCI-H522, Log10 Concentration −4.0): −78%
Percent Growth (NCI-H522; NCI-H522, Log10 Concentration −5.0): −66%
Percent Growth (NCI-H522; NCI-H522, Log10 Concentration −6.0): 80%
Percent Growth (NCI-H522; NCI-H522, Log10 Concentration −7.0): 102%
Percent Growth (NCI-H522; NCI-H522, Log10 Concentration −8.0): 101%
